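Method: 48-hour compound exposure of cells in 96-well plates, five concentrations, linear interpolation of endpoints. TGI marks complete inhibition of growth.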
Key:
Assay in all cases: growth of human tumour cells (NCI), 48 h
ACHN renal = test system: ACHN renal
DU-145 prostate = test system: DU-145 prostate
HL-60(TB) leukemia = test system: HL-60(TB) leukemia
HT29 colon = test system: HT29 colon
IGROV1 ovarian = test system: IGROV1 ovarian
KM12 colon = test system: KM12 colon
M14 melanoma = test system: M14 melanoma
MALME-3M melanoma = test system: MALME-3M melanoma
MDA-N = test system: MDA-N
RPMI-8226 leukemia = test system: RPMI-8226 leukemia
SF-268 CNS = test system: SF-268 CNS
SN12C renal = test system: SN12C renal
TK-10 renal = test system: TK-10 renal

SMILES	TGI (ACHN renal)	TGI (DU-145 prostate)	TGI (HL-60(TB) leukemia)	TGI (HT29 colon)	TGI (IGROV1 ovarian)	TGI (KM12 colon)	TGI (M14 melanoma)	TGI (MALME-3M melanoma)	TGI (MDA-N)	TGI (RPMI-8226 leukemia)	TGI (SF-268 CNS)	TGI (SN12C renal)	TGI (TK-10 renal)
Cc1cc2c(cc1-c1cc3c(cc1C)C(C(C)C)=C(O)C(=O)/C3=C\Nc1cccc3c(N)cccc13)/C(=C/Nc1cccc3c(N)cccc13)C(=O)C(O)=C2C(C)C	> 100 µM	> 100 µM	> 100 µM	> 100 µM	> 100 µM	> 100 µM	> 100 µM	> 100 µM	> 100 µM	> 100 µM	> 100 µM	> 100 µM	> 100 µM
O=Cc1cc(O)ccc1Br	60 µM	> 100 µM	5.39 µM	67.5 µM	> 100 µM	> 81.6 µM	> 92.2 µM	> 31.6 µM	25.6 µM	> 36 µM	> 100 µM	> 100 µM	99 µM
CC1(C)O[C@@H]([C@@H](O)[C@H](O)C2SCCCS2)[C@@H](CO)O1	> 100 µM	> 100 µM	> 100 µM	> 100 µM	> 100 µM	> 100 µM	> 100 µM	> 100 µM	> 100 µM	> 100 µM	> 100 µM	> 100 µM	> 100 µM
Brc1ccc(C2(N3CCCCC3)CCCCC2)s1	> 100 µM	> 100 µM	41.8 µM	> 100 µM	> 100 µM	> 100 µM	71.4 µM	94 µM	> 100 µM	39.5 µM	> 100 µM	> 100 µM	> 100 µM
O=C(CCl)Nc1ccc(-c2nc3ccccc3s2)cc1	13.8 µM	38 µM	5.73 µM	5.57 µM	3.3 µM	11 µM	4.98 µM	4.13 µM	7.89 µM	5.34 µM	8.44 µM	4.2 µM	22.6 µM
O=C(N/N=C1\CCc2ccccc21)N/N=C1\CCc2ccccc21	> 100 µM	> 100 µM	> 100 µM	> 100 µM	> 100 µM	> 100 µM	26.3 µM	> 100 µM	30 µM	> 100 µM	> 100 µM	> 100 µM	> 100 µM
Nc1nc(Cl)c(N)c(NCC2(CO)CC(O)C2)n1 (stereo not drawn)	> 100 µM	> 100 µM	> 100 µM	> 100 µM	> 100 µM	> 100 µM	> 100 µM	> 100 µM	> 100 µM	> 100 µM	> 100 µM	> 100 µM	> 100 µM
COc1cc([C@@H]2c3cc4c(cc3[C@@H](N=Cc3ccc(C(=O)O[C@H]5C[C@H]6OC[C@@]6(OC(C)=O)[C@H]6[C@H](OC(=O)c7ccccc7)[C@]7(O)C[C@H](OC(=O)[C@H](OC(=O)c8ccc(C=N[C@@H]9c%10cc%11c(cc%10[C@@H](c%10cc(OC)c(O)c(OC)c%10)[C@H]%10C(=O)OC[C@@H]%109)OCO%11)cc8)[C@@H](NC(=O)c8ccccc8)c8ccccc8)C(C)=C([C@@H](OC(C)=O)C(=O)[C@]56C)C7(C)C)cc3)C3COC(=O)C32)OCO4)cc(C)c1O (stereo partly drawn)	> 50 µM	> 50 µM	> 50 µM	> 25.2 µM	> 50 µM	> 50 µM	> 21 µM	> 50 µM	7.71 µM	> 50 µM	> 50 µM	> 50 µM	> 50 µM
c1cc(-c2ccc(Oc3ccc(-c4ccncc4)cc3)cc2)ccn1	> 100 µM	> 100 µM	11.1 µM	> 49.6 µM	> 100 µM	> 27.4 µM	> 100 µM	> 44 µM	> 100 µM	4.96 µM	> 100 µM	> 100 µM	> 66.1 µM
CCCCC[C@H]1CC=CC(=O)O1	43.6 µM	36.1 µM	20.3 µM	19.8 µM	27.3 µM	13.9 µM	26.7 µM	33.9 µM	23 µM	19.3 µM	22.3 µM	23.8 µM	40.4 µM
O=C(CN1c2ccccc2Sc2ccccc21)n1cnc2ccccc21	> 100 µM	> 100 µM	> 100 µM	> 100 µM	> 100 µM	> 100 µM	> 100 µM	> 100 µM	> 100 µM	> 100 µM	> 100 µM	> 100 µM	> 100 µM
O=C1C2=Cc3ccccc3CCN2c2ccc([N+](=O)[O-])cc21	> 100 µM	> 100 µM	> 100 µM	> 100 µM	> 100 µM	> 100 µM	> 100 µM	> 100 µM	> 100 µM	> 100 µM	> 100 µM	> 100 µM	> 100 µM
CC(=O)NC1C(OCc2ccccc2)OC(CO)C(O)C1OCC(=O)NC(C)C(=O)NC(CCC(=O)Nc1ccc2c(c1)CN1C(=O)c3ccccc3C1=N2)C(N)=O (stereo not drawn)	> 100 µM	> 100 µM	> 100 µM	> 100 µM	> 100 µM	> 100 µM	> 100 µM	> 100 µM	> 100 µM	> 100 µM	> 100 µM	> 100 µM	> 100 µM
COC1(CCO)CC=CCC1(CCO)OC (stereo not drawn)	> 100 µM	> 100 µM	> 100 µM	> 100 µM	> 100 µM	> 100 µM	> 100 µM	> 100 µM	> 100 µM	> 100 µM	> 100 µM	> 100 µM	> 100 µM
O=C(O)C1CCCCN1CCc1c[nH]c2ccccc12 (stereo not drawn)	> 100 µM	> 100 µM	> 100 µM	> 100 µM	> 100 µM	> 100 µM	> 100 µM	> 100 µM	> 100 µM	> 100 µM	> 100 µM	> 100 µM	> 100 µM
CC1(c2nc3ccccc3[nH]2)CCC(CO)C(C)(C)O1 (stereo not drawn)	> 100 µM	> 100 µM	> 100 µM	> 100 µM	> 100 µM	> 100 µM	> 100 µM	> 100 µM	> 100 µM	> 100 µM	> 100 µM	> 100 µM	> 100 µM
